Patent publication US20240092779A1, “USP1 INHIBITORS AND USES THEREOF” (Zentaur Therapeutics USA Inc., priority 2022, published 2024)
pIC50: −log10 of the molar value. In brackets after ≈: the same amount, converted by molar mass.

Key:
[1] = Solubility in FaSSIF (Fasted State Simulated Intestinal Fluid); format: physicochemical; conditions: kinetic from dmso stock, FaSSIF pH 6.5, 25° C.
Protocol: Solubility in FaSSIF (Fasted State Simulated Intestinal Fluid)
Certain Compounds of the Disclosure were assessed for the apparent solubility in FaSSIF.
0.420 g of NaOH, 3.438 g of NaH2PO4 and 6.186 g of NaCl were dissolved into about 900 mL ultrapure water. The solution was adjusted to the pH of 6.5 with 1N NaOH or 1N HCl. The solution was then diluted with ultrapure water to 1000 mL at room temperature. The resulting solution is used as buffer solution.
2.240 g of FaSSIF Powder was added to about 500 mL of above-mentioned buffer solution. The solution was stirred until powder was completely dissolved. Then the solution was diluted with buffer A to 1000 mL at room temperature. This solution is FaSSIF to be used in the following experiment.
15 μL of stock solution (10 mM) of each sample was placed into their proper 96-well rack. 485 μL of FaSSIF was added into each vial of the cap-less solubility sample plate. One stir stick was added to each vial and the vial was sealed using a molded PTFE/Silicone plug. The solubility sample plate was transferred to the Eppendorf Thermomixer Comfort plate shaker and shaked at 25° C. at 1100 RPM for 2 hours. After completion of the 2 hours, the stir sticks using a big magnet were removed. The samples from the solubility sample plate were transferred into the filter plate. Using the vacuum manifold, all the samples are filtered. Aliquot of 5 μL was taken from filtrate followed by addition of 5 μL DMSO and 490 μL of a mixture of H2O and acetonitrile containing internal standard (1:1).
3 μM Standards solution (STD) was prepared from the 10 mM DMSO STD plate.as following: transferring 6 μL into the remaining empty plate, adding 194 μL of DMSO to that plate to have a STD concentration of 300 μM. From the 300 μM DMSO STD plate, 5 μL solution was transferred into the remaining empty plate. Addition of 5 μL PBS and 490 μL of a mixture of H2O and acetonitrile containing internal standard (1:1) to that plate furnished a final STD concentration of 3 μM STD solution.
The samples are analyzed and quantified against the standard of known concentration using LC/MS/MS, calculating the solubility of the test compound as following (DF means the dilution factor):
[Sample solubility in FsSSIF (04)]=Area Ratio sample×DF sample×[STD]/Area Ratio STD

[2] = Liver microsomal stability (HLM); format: in vitro ADME; conditions: human, liver microsomes, human liver microsomes 0.5 mg/mL, 1 μM compound, NADPH
Protocol: Liver Microsomal Stability
Certain Compounds of the Disclosure were assessed for ADME metabolic stability in human liver microsomes (HLM).
Samples were prepared by adding 222.5 μL of a master solution (100 mM phosphate buffer and 0.5 mg/mL liver microsomes (HLM)) and 25 μL of a 10 mM NADPH solution to incubation plates, which were then warmed for 10 min. Each compound was separately dissolved in DMSO to prepare 10 mM stock solutions, which were then diluted to 100 μM with acetonitrile. A reaction was started by adding 2.5 μL of the […] solution of each compound to separate incubation plates such that the final concentration of for each compound in each plate was 1 μM. Aliquots of 30 μL were taken from the reaction solution at 0.5, 5, 15, 30 and 60 minutes. The reaction was stopped by the addition of 5 volumes of cold acetonitrile with IS (100 nM alprazolam, 200 nM caffeine and 100 nM tolbutamide). Aliquot of 100 μL of the supernatant was diluted by 100 μL ultra-pure water, and the mixture was used for LC/MS/MS analysis. Peak areas were determined from extracted ion chromatograms. […]. The percentage of remaining parent was calculated from peak area of test compound or PC. The slope value, k, is determined by linear regression of the natural logarithm of percent parent remaining vs. incubation time curve. All calculations are carried out using Microsoft Excel.
The in vitro half-life (in vitro t1/2) is determined from the slope value:
Conversion of the in vitro t1/2 (in min) into the in vitro intrinsic clearance (in vitro CLint, (HLM Clint (μL/min/mg proteins))) is done using the following equation: […]
A: HLM Clint <10 μL/min/mg; B: 10 μL/min/mg≤HLM Clint <50 μL/min/mg; C: HLM Clint ≥50 μL/min/mg.

HCC1806 Ub-PCNA (USP1) = test: USP1 Western Blot Protocol (HCC1806 Ub-PCNA); format: cell-based; conditions: Homo sapiens, HCC1806 cells, 4 hours
From the text: USP1 Western Blot Protocol (HCC1806 Ub-PCNA)
USP1 is a deubiquitinase that catalyze the hydrolysis of iso-peptide bond between ubiquitin and the substrate proteins. Inhibition of USP1 activity results in accumulation of mono-ubiquitinated substrate such as Ub-PCNA. A cell assay was set up to determine the cellular potency of USP1 compounds by monitoring the accumulation of Ub-PCNA. The signal intensity was detected by a specific Ub-PCNA antibody through Western-blot analysis.
The assay was initiated by seeding HCC1806 cells (ATCC, CRL-2335) into 6-well plates (Corning, 3516), with a seeding density of 3×10^5 cells per well and 2 mL RPMI 1640 culture medium (Gibco, 11875119). The plates were incubated overnight at 37° C. and 5% CO2. Compounds, solubilized in DMSO (Solarbio, D8371) as 1 mM stock solution, were diluted in 4-fold steps for 5-cencentration point dose response plus a no-compound DMSO control. Diluted compounds (2 μL) were transferred into assay wells (with a final DMSO concentration of −0.1%) and the resulted assay plates incubated at 37° C. and 5% CO2 for 4 hours. After aspiration of culture medium, 100 μL of 4° C. RIPA lysis buffer (Boston BioProducts, BP-115D) supplemented with vendor recommended concentrations of protease (Roche, 4693116001) and phosphatase (Roche, 4906837001) inhibitor, was added to each well and incubated for 10 minutes on the ice. Cells were scrapped loose from the bottom of well with a scraper (Corning, 3008), transferred into a 600 μL EP tube, sonicated using Ultrasound (Qsonica, Q800R3, with 30% energy, 5-second pulse on/off cycles at 4° C., for total 2 minutes), centrifuged 13,000 rpm for 15 minutes at 4° C., and then the supernatant transferred to a new 600 μL EP tube. The total protein concentration was determined using BCA kit following vendor recommended protocol (Solarbio, PC0020-500). Loading samples were prepared by diluting the total protein concentration to 1.5 μg/μL with 5 X NuPAGE SDS loading buffer (Beyotime, P0015L) and RIPA lysis buffer, and boiling at 100° C. for 5 minutes.
15 μg protein from each sample was loaded onto NuPAGE® Novex 4-12% Bis-Tris Midi Gel, 26 W (Invitrogen, WG1403BOX) and electrophoresis was run at 80 V for 30 minutes and 120 V till the end using 1x NuPAGE® MOPS SDS Running Buffer (Novex, NP0001). The gel was then transferred to nitrocellulose membrane using the dry transfer system (iBlot 2 Transfer Stacks, nitrocellulose, D323001) with a program consisting of 20 V for 1 minute, 23 V for 4 minutes and 25 V for 2 minutes. After the membrane was blocked with 5% BSA (Solarbio, A8020) in 1X TBST (CST, 9997S) for 1 hour at room temperature, specific antibodies (Ubiquityl-PCNA antibody (CST, 13439) at 1:500 dilution, PCNA antibody (Santa Cruz, sc-56) at 1:1000 dilution, and GAPDH (CST, 5174) at 1:2000 dilution in 1 X TBST containing 1% BSA) were added and incubated at room temperature for 1.5 hours. After washing the Nitrocellulose membranes with 1 X TBST for 3 times, 10 minutes each time at room temperature, fluorescently labeled secondary antibodies (anti-rabbit IgG, Licor, 926-32211; anti-mouse IgG, LI-COR, 926-68070) at 1:5000 dilution in 1 X TBST containing 1% BSA were added and incubated for 1 hour at room temperature in the dark. The membranes were then rinsed with 1 X TBST and immersed in the RO water. Imaging of band intensity was acquired with Li—COR imaging system (Li—COR, Odyssey clx ES).
Percentage of USP1 inhibition (% Vehicle) was calculated by using following equation examining Ub-PCNA upregulation:
And IC50 was calculated using four-parameter logistic fitting program • Y=Bottom+(Top-Bottom)/(1+10 {circumflex over (()}(LogIC50−X)*Hill Slope)) • X=Log of dose or concentration
(§1) Certain compounds were tested in the assays.

MDA-MB-436 cells = test: CTG Protocol (MDA-MB-436 GI50), antiproliferative activity; format: cell-based, human; conditions: Homo sapiens, 168 h; MDA-MB-436 cells (BRCA1 mutation), 7-day incubation, CellTiter-Glo
Protocol: CTG Protocol (MDA-MB-436 GI50)
Antiproliferative activity of USP1 inhibitors was determined using breast cancer cell line MDA-MB-436 that harbors BRCA1 mutation. MDA-MB-436 cells (ATCC, HTB-130) was seeded with a seeding density of 1000 cells per well and 95 μL DMEM medium (Gibco, 10566016) into 96-well cell plates (Corning, 3610), and incubated overnight at 37° C. and 5% CO2. Compounds were solubilized in DMSO (Solarbio, D8371) as 10 mM stock solution, and then series diluted (3 folds) with DMSO for 9-point dose-response testing. The resulted series dilutions were then jump-diluted 50-fold by cell culture medium to afford the 20×stock solutions (containing 2% DMSO). Treatment was initiated by adding 5 μL of 20×stock solution to the assay plate and incubated at 37° C. and 5% CO2. At the end of 7-day incubation, cell assay plates were removed from incubation and equilibrated to room temperature (20 min). Then 100 μL of CellTiter-Glo (Promega, G9243) reagent, prepared per manufacturer's protocol, was added to each well, and the resulted plates were centrifuged 1,000 rpm for 1 minute, incubated at room temperature in the dark for 20 minutes, sealed with Perkin Elmer sticky film, and the luminescence signal read by Envision (Perkin Elmer).
Data analysis • a) % Inhibition was calculated using following equation: […]
X: compound concentration; Y: % Inhibition
as §1

Structure (SMILES) | solubility at 2 h [1] [µM] | microsomal CLint at 1 μM [2] [µL/min/mg] | pIC50 (HCC1806 Ub-PCNA (USP1)) | GI50 (MDA-MB-436 cells) [nM]
COc1ncnc(C2CC2)c1-c1ncc2c(C)c(-c3cnn(C)c3)c(=O)n(Cc3ccc(-c4nc(C(F)(F)F)cn4C4CC4)cc3)c2n1 [Compound I-128] | 10 to 100 (≈ 6.54 to 65.4 µg/mL) | < 10 | – | –
COc1cc(Cn2c(=O)cnc3cnc(-c4c(OC)ncnc4C4CC4)nc32)ccc1-n1nc(C(F)(F)F)cc1OC [Compound I-123] | ≥ 100 | 10 to 50 | – | –
COc1ncnc(C2CC2)c1-c1ncc2cc(-c3cnn(C4CCN(C)CC4)c3)c(=O)n(Cc3ccc(-c4nc(C(F)(F)F)cn4C4CC4)cc3)c2n1 [Compound I-143] | ≥ 100 | 10 to 50 | – | –
COc1cc(Cn2c(=O)ccc3cnc(-c4c(OC)ncnc4C4CC4)nc32)cc(F)c1-c1nc(C(F)(F)F)cn1C1CC1 [Compound I-53] | ≥ 100 | 10 to 50 | – | –
COc1ncnc(C2CC2)c1-c1ncc2cc(-c3cn[nH]c3)c(=O)n(Cc3ccc(-c4nc(C(F)(F)F)cn4C4CC4)cc3)c2n1 [Compound I-130] | ≥ 100 | < 10 | – | –
COc1ncnc(C2CC2)c1-c1ncc2cc(C(C)(C)O)c(=O)n(Cc3ccc(-c4nc(C(F)(F)F)cn4C4CC4)cc3)c2n1 [Compound I-109] | ≥ 100 | < 10 | – | –
COCCN1CCC(c2cc3cnc(-c4c(OC)ncnc4C4CC4)nc3n(Cc3ccc(-c4nc(C(F)(F)F)cn4C4CC4)cc3)c2=O)CC1 [Compound I-120] | ≥ 100 | < 10 | – | –
COc1ncnc(C2CC2)c1-c1ncc2cc(-c3cnn(CCO)c3)c(=O)n(Cc3ccc(-c4nc(C(F)(F)F)cn4C4CC4)cc3)c2n1 [Compound I-131] | ≥ 100 | < 10 | – | –
COc1ncnc(C2CC2)c1-c1ncc2ccc(=O)n(Cc3ccc(-n4nc(C(F)(F)F)cc4OC)cc3)c2n1 [Compound I-110] | < 10 | < 10 | – | –
COc1ncnc(C2CC2)c1-c1ncc2cc(-c3cnn(C4CN(C)C4)c3)c(=O)n(Cc3ccc(-c4nc(C(F)(F)F)cn4C4CC4)cc3)c2n1 [Compound I-137] | ≥ 100 | 10 to 50 | – | –
COc1ncnc(C2CC2)c1-c1ncc2cc(C3=CCN(C)CC3)c(=O)n(Cc3ccc(-c4nc(C(F)(F)F)cn4C(C)C)cc3)c2n1 [Compound I-106] | ≥ 100 | < 10 | – | –
COc1cc(Cn2c(=O)cnc3cnc(-c4c(OC)ncnc4C4CC4)nc32)ccc1-c1nc(C(F)(F)F)cn1C(C)C [Compound I-118] | ≥ 100 | 10 to 50 | – | –
[2H]C([2H])([2H])n1cc(C(F)(F)F)nc1-c1ccc(Cn2c(=O)ccc3cnc(-c4c(OC)ncnc4C4CC4)nc32)cc1 [Compound I-31, 2-(4-Cyclopropyl-6-Methoxypyrimidin-5-Yl)-8-({4-[1-(2H3)Methyl-4-(Trifluoromethyl)Imidazol-2-Yl]Phenyl}Methyl)Pyrido[2,3-d]Pyrimidin-7-One] | – | 10 to 50 | 7.00 to 8.00 | < 10
